Assay results taken from ChEMBL document CHEMBL3259531, “Discovery of novel type II c-Met inhibitors based on BMS-777607” (Eur J Med Chem, 2014).
Calls of active or inactive are those of the source. The calls are words filed in the database; no cut-off is given here.

Legend:
[1] = biological target: T1, Hepatocyte growth factor receptor (Homo sapiens, UniProt P08581); assay: Inhibition of c-Met (unknown origin) using poly Glu:Tyr (4:1) as substrate at 10 uM after 60 mins by ELISA relative to control
[2] = tested on: BaF3; assay: Cytotoxicity against mouse BAF3 cells expressing TPR-Met assessed as growth inhibition at 10 uM after 72 hrs relative to control; assay type: functional; conditions: BaF3, 72 h, read-out: GI
[3] = biological target: T1, Hepatocyte growth factor receptor
[4] = tested on: BaF3; assay: Cytotoxicity against mouse BAF3 cells expressing TPR-Met assessed as growth inhibition after 72 hrs; conditions: BaF3, 72 h
[5] = Cytotoxicity against human MKN45 cells assessed as growth inhibition after 72 hrs; conditions: MKN-45, 72 h
[6] = biological target: T1, Hepatocyte growth factor receptor; assay: Inhibition of c-Met (unknown origin) using poly Glu:Tyr (4:1) as substrate after 60 mins by ELISA
[7] = biological target: T1, Hepatocyte growth factor receptor; remark: listed apart in the source
[8] = biological target: T1, Hepatocyte growth factor receptor; assay: Inhibition of c-Met (unknown origin)
[9] = tested on: BaF3; assay: Cytotoxicity against mouse BAF3 cells expressing TPR-Met assessed as growth inhibition at 1 uM after 72 hrs; assay type: functional, cell-based

Compound `COc1cc2nccc(Oc3ccc(NC(=O)c4cccn(-c5ccc(F)cc5)c4=O)cc3F)c2cc1OC` has an inhibition [1] of 29.7%.

Work on `O=C(Nc1ccc(Oc2ncnc3[nH]ccc23)c(F)c1)c1cccn(-c2ccc(F)cc2)c1=O` yielded an inhibition of growth at 10 µM [2] greater than 80%.

With `Cc1ccc(NC(=O)C2CCCN(c3ccc(Oc4ccnc(N)c4Cl)c(F)c3)S2(=O)=O)cc1` (stereo not drawn) the IC50 [3] was “Not Active”.

With `CCOc1ccn(-c2ccc(F)cc2)c(=O)c1C(=O)Nc1ccc(Oc2ccnc3cc(OC)c(OC)cc23)c(F)c1` the IC50 [4] was 19.5 nM, the inhibition of growth at 10 µM [2] was greater than 80% and the IC50 [5] was 39.7 nM.

For `Nc1nccc(Oc2ccc(N3CCCC(C(=O)Nc4ccc(F)cc4)S3(=O)=O)cc2F)c1Cl` (stereo not drawn), the inhibition [6] was “inactive”.

In the case of `Nc1nccc(Oc2ccc(N3CCCC(C(=O)Nc4ccccc4)S3(=O)=O)cc2F)c1Cl` (stereo not drawn), the inhibition [6] is reported as “inactive”.

`Nc1nccc(Oc2ccc(NC(=O)c3cccn(-c4ccc(F)cc4)c3=O)cc2F)n1` showed an IC50 [7] of 39 nM.

Compound `CCOc1ccn(-c2ccc(F)cc2)c(=O)c1C(=O)Nc1ccc(Oc2ccnc(N)c2Cl)c(F)c1` [BMS-777607] has an IC50 [4] of 188 nM and an IC50 [5] of 286 nM.

In the case of `CCn1cnc(-c2cc3nccc(Oc4ccc(NC(=S)N5CCN(c6ccc(F)cc6)C5=O)cc4F)c3s2)c1`, the IC50 [8] is reported as 27 nM.

In the case of `COc1cc2nccc(Oc3ccc(NC(=O)c4c(OC)ccn(-c5ccc(F)cc5)c4=O)cc3F)c2cc1OC`, the IC50 [4] is reported as 36.3 nM, the inhibition of growth at 10 µM [2] is reported as greater than 80% and the IC50 [5] is reported as 57.7 nM.

`CCOc1ccn(-c2ccc(F)cc2)c(=O)c1C(=O)Nc1ccc(Oc2ncnc3[nH]ccc23)c(F)c1` gave an inhibition of growth at 10 µM [2] greater than 80%.

For `COc1cc2nccc(Oc3ccc(NC(=O)c4c(I)ccn(-c5ccc(F)cc5)c4=O)cc3F)c2cc1OC`, the “growth inhibition (GI)” value [9] was “Active” and the inhibition of growth at 10 µM [2] was greater than 80%.
